Laboratory results as given in patent publication US10660914B2, “Stuffy nose deblocking composition having antiviral activity” (MARINOMED BIOTECH AG, priority 2015, dated 2020).

Assays:
human coronavirus OC43 = experiment: Hemagglutination inhibition assay, minimal inhibitory concentration for prevention of hCoV OC43 attachment to chicken RBCs; assay type: cell-based
Protocol: On a 96-well plate, two hemagglutination units of hCoV OC43/well were incubated with a ½-log dilution series of test or control samples for 10 min at room temperature. Final assay concentrations were 0.002 to 3 μg/ml iota-carrageenan in aqueous 0.5, 0.9, 2.0, 2.3 or 2.6% NaCl solution in the presence or absence of 7% sorbitol. Then, a suspension of chicken RBCs (1% v/v in PBS) was added to each well to allow hemagglutination of red blood cells (RBCs) by the virus for 1.5 hrs at 4° C. At the time point of assay evaluation, control RBCs in the absence of carrageenan were fully agglutinated, whereas hemagglutination was inhibited in the presence of carrageenan up to a sample-specific concentration, the minimal inhibitory concentration.

[1] = Osmolality of carrageenan preparations; assay type: physicochemical
[2] = test system: human rhinovirus 8 (HRV8); experiment: Inhibition of human rhinovirus 8 infection of Hela cells (cell viability, IC50)
Protocol: (§1) Hela cells were seeded into 96 well plates with a cell density of 5*10^3 cells per well and cultivated for 24 hours in a standard DMEM tissue culture medium containing 4.5 g/I glucose. Virus suspensions containing carrageenan polymer at varying concentrations of between 0 and 150 μg/ml, in combination with NaCl and sorbitol (as indicated in the respective legends to each table) in a dilution series, were incubated for 30 minutes. Cells were infected with these virus suspensions containing the test substances and 7*10^3 (HRV1a) or 5*10^4 (HRV8) infectious units per well. 30 minutes after infection the virus inoculum was removed and substituted by virus-free infection medium containing carrageenan polymer, NaCl salt and sorbitol in the concentrations to be tested. The cells were incubated for 2 to 3 days at 33° C. […] An incubation of cells with the same dilution series of test substances (i.e. carragenan component plus osmolalitiy adjusting agents) in the absence of viral infection was performed to monitor for a potential toxicity of the treatment. Calculation of IC50 values was performed with standard fitting software ExcelFit.

[3] = test system: human rhinovirus 1a (HRV1a); experiment: Inhibition of human rhinovirus 1a infection of Hela cells (cell viability, IC50)
Protocol: as §1

[4] = 0.9% NaCl (295 mOsm/kg) compared to 0.5% NaCl (174 mOsm/kg)
[5] = 2% NaCl (670 mOsm/kg) compared to 0.5% NaCl (174 mOsm/kg)
[6] = 2.6% NaCl (872 mOsm/kg) compared to 0.5% NaCl (174 mOsm/kg)
[7] = 2.3% NaCl (776 mOsm/kg) compared to 0.5% NaCl (174 mOsm/kg)

iota-carrageenan [iota carrageenan]
Increase of the minimal inhibitory concentration, hCV OC43 (human coronavirus OC43; 0.5% NaCl + 7% sorbitol (597 mOsm/kg) compared to 0.5% NaCl (174 mOsm/kg)): 1-fold (ns) | Increase of the minimal inhibitory concentration, hCV OC43 (human coronavirus OC43; [4]): 1-fold (ns) | Increase of the minimal inhibitory concentration, hCV OC43 (human coronavirus OC43; 0.9% NaCl + 7% sorbitol (733 mOsm/kg) compared to 0.5% NaCl (174 mOsm/kg)): 1-fold (ns) | Increase of the minimal inhibitory concentration, hCV OC43 (human coronavirus OC43; [5]): 10-fold* | Increase of the minimal inhibitory concentration, hCV OC43 (human coronavirus OC43; 2.3% NaCl (748 mOsm/kg) compared to 0.5% NaCl (174 mOsm/kg)): 10-fold* | Increase of the minimal inhibitory concentration, hCV OC43 (human coronavirus OC43; 2.3 NaCl (776 mOsm/kg) compared to 0.5% NaCl (174 mOsm/kg)): 10-fold* | Increase of the minimal inhibitory concentration, hCV OC43 (human coronavirus OC43; [6]): 10-fold* | osmolality ([1]; Table 1, solution with 0.9% NaCl): 295 mOsm/kg | osmolality ([1]; Table 1, solution with 2% NaCl): 670 mOsm/kg | osmolality ([1]; Table 1, solution with 2.3% NaCl): 776 mOsm/kg | osmolality ([1]; Table 1, solution with 2.6% NaCl): 872 mOsm/kg | osmolality ([1]; Table 4, solution with 0.9% NaCl): 295 mOsm/kg | osmolality ([1]; Table 4, solution with 2% NaCl): 670 mOsm/kg | osmolality ([1]; Table 4, solution with 2.3 NaCl): 776 mOsm/kg | osmolality ([1]; Table 4, solution with 2.6% NaCl): 872 mOsm/kg | osmolality ([1]; Table 5, solution with 0.5% NaCl + 7% sorbitol): 597 mOsm/kg | osmolality ([1]; Table 5, solution with 0.9% NaCl + 7% sorbitol): 733 mOsm/kg | osmolality ([1]; Table 5, solution with 2.3% NaCl): 748 mOsm/kg | Increase of IC50 value, HRV8 inhibition [2, 4]: 1.8-fold (ns) | Increase of IC50 value, HRV8 inhibition [2, 5]: 3.6-fold* | Increase of IC50 value, HRV8 inhibition [2, 7]: 6.9-fold* | Increase of IC50 value, HRV8 inhibition [2, 6]: 7.5-fold* | Increase of IC50 value, HRV1a inhibition ([3]; 0.9% NaCl (295 mOsm/kg) compared to hypoosmolar 0.5% NaCl solution (174 mOsm/kg)): 3.1-fold* ^ | Increase of IC50 value, HRV1a inhibition [3, 5]: 14.5-fold* | Increase of IC50 value, HRV1a inhibition [3, 7]: 22.3-fold* | Increase of IC50 value, HRV1a inhibition [3, 6]: 33.7-fold* | reduction in inhibitory efficacy on human rhinovirus replication ([3]; isoosmolar (0.9%) and hyperosmolar (2%, 2.3%, 2.6% NaCl) compared with hypoosmolar solution (0.5% NaCl), summary of Table 1): ≤ 34 fold
